# Test results reported in patent US10011609B2, “Heterocyclic compounds” (CADILA HEALTHCARE LIMITED, priority 2013, dated 2018).
# Read-outs that look alike come from different tables or passages of the source.
# Experiments:
# GPR40 [1] = molecular target: T1, GPR40 (Homo sapiens, UniProt O14842); test: Promoter-luciferase assay to measure GPR40 activation (HEK293 cells stably transfected with GPR40 cDNA); type: cell-based; settings: HEK293 cells stably transfected with GPR40, 5xSRE-luciferase
# T1 construct: host or cells: HEK293 (ChemiBrite cell line)
# Protocol: GPR40 activation was measured in HEK293 cells stably transfected with GPR40 cDNA (ChemiBrite cell lines from Millipore, US). These cells were transiently transfected with a pGL2 (Promega Inc.) plasmid having a 5×SRE sequence, cloned 5′ of a luciferase gene along with a β-galactosidase plasmid as normalizing control. Briefly, 35000 cells/well were seeded in a 96 well plates. After overnight incubation at 37° C., the cells were washed with PBS and transfected with the 5×-SRE-Luciferase plasmid and the β-galactosidase plasmid. 6 h post transfection, media was removed and replaced with fresh media with different concentration of drugs and incubated for 16 more hours. The cells were then lysed in 50 μL of Glo-Lysis buffer (Promega) for 30 min at room temperature. The cells were then centrifuged and lysates were collected. Luciferase activity was measured by adding 100 μL of luciferase substrate (Promega) in 20 μL of lysate and measuring the luminescence in luminometer. The […] activity was also measured by adding 20 μL of lysates with 20 μL of β-galactosidase buffer (Promega) and monitoring the absorbance at 415 nm. Luciferase values were divided by β-galactosidase values to normalize transfection efficiency (Table 2)
# GPR40 [2] = molecular target: T1, GPR40; test: Intracellular Ca2+ flux fluorescent assay (FLIPR); type: cell-based
# Protocol: To determine the EC50 of the compounds on intracellular Ca^2+ flux using a fluorescent assay (FLIPR)
# GPR40 expressing stable cells were seeded at 25,000 numbers/well. 50 μL/well of assay buffer (20 mM HEPES+1×HBSS) was added to the cells and the cells were cultured for 20 min at 37° C. Cells were loaded with 50 μL/well of Calcium 5 dye and cultured for 45 min at 37° C.
# The cells were challenged with compounds at a top concentration of 1000 nM (1:3 step down dilution—10 points). Intracellular Calcium flux was assessed by use of Screen Works 3.1 tool and statistical analysis was carried using Graph Pad Prism 4
# n-STZ rat model = test: Oral glucose tolerance test in n-STZ rat model; type: in vivo, Wistar rat; settings: for % improvement in AUC glucose vs. control: n-STZ rat; for ED50: po, n-STZ rat OGTT model
# Protocol: Primary Screening Protocol for GRP40 agonist test compounds in n-STZ rat model
# Wistar rat pups of 1-2 day old injected with Streptozotocin (STZ) at 120 mg/kg dose by intraperitoneal route. All pups allowed grow normally and at the age of 12-14 week they were screen for glucose intolerance by performing the oral glucose tolerance test by tail clip method using glucometer. Animals showing glucose intolerance were selected for evaluation of test compound. Three to seven days of rest period animals were kept on overnight fasting. […] Animals were administered with test compound and then 15-60 min after the compound administration “O” min blood glucose levels were measured and immediately glucose load at 2 g/kg was administered orally. Blood glucose levels were measured at 30, 60 and 120 min after glucose load using by tail clip method using glucometer. Blood was also collected at 10 min after glucose load for measurement of insulin levels. Glucose area under the curve (AUC) was calculated using Graph Pad Prism software and % reduction in AUC-glucose vs vehicle treated control was calculated (Table 3).
# Pharmacokinetics in rats = settings: rat, in vivo; for MRT: read-out: Mean residence time; for Vd: read-out: Vss; for bioavailability: po 3 mg/Kg vs iv 1 mg/Kg
# [3] = read-out: EC50 in Luciferase assay
# [4] = GPR40 expressing stable cells, intracellular Ca2+ flux, read-out: EC50 in FLIPR assay
# [5] = iv 1 mg/Kg, read-out: T1/2, iv (converted)
# [6] = po 3 mg/Kg, read-out: T1/2, po (converted)
# T1 sequence (O14842 whole entry, species assumed): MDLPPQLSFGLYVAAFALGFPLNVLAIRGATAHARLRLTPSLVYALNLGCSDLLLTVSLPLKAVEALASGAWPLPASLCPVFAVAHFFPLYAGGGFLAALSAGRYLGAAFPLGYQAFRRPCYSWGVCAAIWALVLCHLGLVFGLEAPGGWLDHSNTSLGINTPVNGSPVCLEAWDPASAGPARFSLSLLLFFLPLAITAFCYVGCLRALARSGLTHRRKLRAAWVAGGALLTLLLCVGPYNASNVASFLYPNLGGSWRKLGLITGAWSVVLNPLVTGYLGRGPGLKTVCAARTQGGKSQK
smiles,measurement,setting,value
"CC#C[C@@H](CC(=O)O)c1ccc(OCc2cccc(CN3CCc4sccc4C3)c2)cc1 [Compound 1, (S)-3-(4-((3-((6,7-dihydrothieno[3,2-c]pyridin-5(4H)yl)methyl)benzyl)oxy)phenyl)hex-4-ynoic acid]",EC50,GPR40 [1]; [3],7.5 nM
same,EC50,GPR40 [2]; [4],117 nM
"CC#C[C@@H](CC(=O)O)c1ccc(OCc2cccc(CN3CCc4sc(C)cc4C3)c2)cc1 [Compound 7, (S)-3-(4-((3-((2-methyl-6,7-dihydrothieno[3,2-c]pyridin-5(4H)-yl)methyl)benzyl)oxy)phenyl)hex-4-ynoic acid]",EC50,GPR40 [1]; [3],1.49 nM
same,% improvement in AUC glucose vs. control,n-STZ rat model; 0.1 mg/Kg per oral,30.4%
same,% improvement in AUC glucose vs. control,n-STZ rat model; 1 mg/Kg per oral,46.0%
same,% improvement in AUC glucose vs. control,n-STZ rat model; 10 mg/Kg per oral,57.0%
same,EC50,GPR40 [2]; [4],1.8 nM
"CC#C[C@@H](CC(=O)O)c1ccc(OCc2cccc(CN3CCc4nc(C)sc4C3)c2)cc1 [Compound 10, (S)-3-(4-((3-((2-methyl-6,7-dihydrothiazolo[5,4-c]pyridin-5(4H)-yl)methyl)benzyl)oxy)phenyl)hex-4-ynoic acid]",EC50,GPR40 [1]; [3],16.9 nM
same,% improvement in AUC glucose vs. control,n-STZ rat model; 0.1 mg/Kg per oral,21.1%
same,% improvement in AUC glucose vs. control,n-STZ rat model; 1 mg/Kg per oral,35.7%
same,% improvement in AUC glucose vs. control,n-STZ rat model; 10 mg/Kg per oral,45.0%
"CC#C[C@@H](CC(=O)[O][Ca][O]C(=O)C[C@H](C#CC)c1ccc(OCc2cccc(CN3CCc4sc(C)cc4C3)c2)cc1)c1ccc(OCc2cccc(CN3CCc4sc(C)cc4C3)c2)cc1 [Compound 16, calcium(S)-3-(4-((3-((2-methyl-6,7-dihydrothieno[3,2-c]pyridin-5(4H)-yl)methyl)benzyl)oxy)phenyl)hex-4-ynoate(S)-3-(4-((3-((2-methyl-6,7-dihydrothieno[3,2-c]pyridin-5(4H)-yl)methyl)benzyl)oxy)phenyl)hex-4-ynoate]",EC50,GPR40 [1]; EC50 in Luciferase assay,4.6 nM
same,AUC(0-t),Pharmacokinetics in rats; iv 1 mg/Kg,3180 ± 400 ng·h/mL
same,C0,Pharmacokinetics in rats; iv 1 mg/Kg,5020 ± 370 ng/mL
same,clearance,Pharmacokinetics in rats; iv 1 mg/Kg,5.26 ± 0.65 mL/min/kg
same,MRT,Pharmacokinetics in rats; iv 1 mg/Kg,1.09 ± 0.07 h
same,half-life,Pharmacokinetics in rats; [5],1.45 ± 0.12 h
same,Vd,Pharmacokinetics in rats; iv 1 mg/Kg,0.34 ± 0.03 L/kg
same,Cmax,Pharmacokinetics in rats; po 3 mg/Kg,5920 ± 2100 ng/mL
same,Tmax,Pharmacokinetics in rats; po 3 mg/Kg,0.25 h
same,bioavailability,Pharmacokinetics in rats,83%
same,MRT,Pharmacokinetics in rats; po 3 mg/Kg,2.19 ± 0.31 h
same,half-life,Pharmacokinetics in rats; [6],1.77 ± 0.42 h
same,% improvement in AUC glucose vs. control,n-STZ rat model; 1 mg/Kg per oral,44.6%
same,% improvement in AUC glucose vs. control,n-STZ rat model; 10 mg/Kg per oral,59.6%
same,ED50,n-STZ rat model,0.05 mg/kg
same,EC50,GPR40 [2],2.72 nM
"CC#C[C@@H](CC(=O)[O][Ca][O]C(=O)C[C@H](C#CC)c1ccc(OCc2cccc(CN3CCc4nc(C)sc4C3)c2)cc1)c1ccc(OCc2cccc(CN3CCc4nc(C)sc4C3)c2)cc1 [Compound 17, calcium (S)-3-(4-((3-((2-methyl-6,7-dihydrothiazolo[4,5-c]pyridin-5(4H)-yl)methyl)benzyl)oxy)phenyl)hex-4-ynoate(S)-3-(4-((3-((2-methyl-6,7-dihydrothiazolo[4,5-c]pyridin-5(4H)-yl)methyl)benzyl)oxy)phenyl)hex-4-ynoate]",EC50,GPR40 [1]; EC50 in Luciferase assay,4.7 nM
same,% improvement in AUC glucose vs. control,n-STZ rat model; 1 mg/Kg per oral,37.1%
same,% improvement in AUC glucose vs. control,n-STZ rat model; 10 mg/Kg per oral,44.7%
same,EC50,GPR40 [2],10.2 nM
"CC#C[C@@H](CC(=O)O)c1ccc(OCc2cccc(CN3CCc4sc(Br)cc4C3)c2)cc1 [Compound 19, Calcium (S)-3-(4-((3-((2-bromo-6,7-dihydrothieno[3,2-c]pyridin-5(4H)-yl)methyl)benzyl)oxy)phenyl)hex-4-ynoate]",EC50,GPR40 [2]; [4],2.32 nM
"CC#C[C@@H](CC(=O)O)c1ccc(OCc2cccc(CN3Cc4cnn(C)c4C3)c2)cc1 [Compound 22, (S)-3-(4-((3-((1-Methylpyrrolo[3,4-c]pyrazol-5(1H,4H,6H)-yl)methyl)benzyl)oxy)phenyl)hex-4-ynoic acid]",EC50,GPR40 [1]; [3],31.5 nM
same,EC50,GPR40 [2]; [4],36.3 nM
"CC#C[C@@H](CC(=O)[O][Ca][O]C(=O)C[C@H](C#CC)c1ccc(OCc2cccc(CN3CCc4nc(Cl)sc4C3)c2)cc1)c1ccc(OCc2cccc(CN3CCc4nc(Cl)sc4C3)c2)cc1 [Compound 60, Calcium (S)-3-(4-((3-((2-chloro-6,7-dihydrothiazolo[5,4-c]pyridin-5(4H)-yl)methyl)benzyl)oxy)phenyl)hex-4-ynoate]",EC50,GPR40 [1]; EC50 in Luciferase assay,5.6 nM
same,AUC(0-t),Pharmacokinetics in rats; iv 1 mg/Kg,18600 ± 2170 ng·h/mL
same,C0,Pharmacokinetics in rats; iv 1 mg/Kg,3390 ± 330 ng/mL
same,clearance,Pharmacokinetics in rats; iv 1 mg/Kg,0.89 ± 0.1 mL/min/kg
same,MRT,Pharmacokinetics in rats; iv 1 mg/Kg,6.28 ± 0.77 h
same,half-life,Pharmacokinetics in rats; [5],5.57 ± 1.46 h
same,Vd,Pharmacokinetics in rats; iv 1 mg/Kg,0.33 ± 0.01 L/kg
same,Cmax,Pharmacokinetics in rats; po 3 mg/Kg,7770 ± 1940 ng/mL
same,Tmax,Pharmacokinetics in rats; po 3 mg/Kg,1 h
same,bioavailability,Pharmacokinetics in rats,93%
same,MRT,Pharmacokinetics in rats; po 3 mg/Kg,5.74 ± 0.1 h
same,half-life,Pharmacokinetics in rats; [6],5.45 ± 0.79 h
same,% improvement in AUC glucose vs. control,n-STZ rat model; 1 mg/Kg per oral,44%
same,% improvement in AUC glucose vs. control,n-STZ rat model; 10 mg/Kg per oral,47%
same,ED50,n-STZ rat model,0.04 mg/kg
"CC#C[C@@H](CC(=O)[O][Ca][O]C(=O)C[C@H](C#CC)c1ccc(OCc2cccc(CN3CCc4oc(C5CC5)nc4C3)c2)cc1)c1ccc(OCc2cccc(CN3CCc4oc(C5CC5)nc4C3)c2)cc1 [Compound 64, Calcium (S)-3-(4-((3-((2-cyclopropyl-6,7-dihydrooxazolo[4,5-c]pyridin-5(4H)-yl)methyl)benzyl)oxy)phenyl)hex-4-ynoate]",EC50,GPR40 [1]; EC50 in Luciferase assay,1.2 nM
same,AUC(0-t),Pharmacokinetics in rats; iv 1 mg/Kg,56100 ± 4350 ng·h/mL
same,C0,Pharmacokinetics in rats; iv 1 mg/Kg,10200 ± 1540 ng/mL
same,clearance,Pharmacokinetics in rats; iv 1 mg/Kg,0.27 ± 0.03 mL/min/kg
same,MRT,Pharmacokinetics in rats; iv 1 mg/Kg,10.1 ± 1.36 h
same,half-life,Pharmacokinetics in rats; [5],7.77 ± 1.07 h
same,Vd,Pharmacokinetics in rats; iv 1 mg/Kg,0.16 ± 0.01 L/kg
same,Cmax,Pharmacokinetics in rats; po 3 mg/Kg,8060 ± 2190 ng/mL
same,Tmax,Pharmacokinetics in rats; po 3 mg/Kg,2 h
same,bioavailability,Pharmacokinetics in rats,45%
same,MRT,Pharmacokinetics in rats; po 3 mg/Kg,6.59 ± 0.93 h
same,half-life,Pharmacokinetics in rats; [6],4.51 ± 0.61 h
same,% improvement in AUC glucose vs. control,n-STZ rat model; 1 mg/Kg per oral,46%
same,% improvement in AUC glucose vs. control,n-STZ rat model; 10 mg/Kg per oral,47%
same,ED50,n-STZ rat model,0.09 mg/kg
"CC#C[C@@H](CC(=O)O)c1ccc(OCc2cccc(CN3CCc4sc(C5CC5)cc4C3)c2)cc1 [Compound 69, (S)-3-(4-((3-((2-Cyclopropyl-6,7-dihydrothieno[3,2-c]pyridin-5(4H)-yl)methyl)benzyl)oxy)phenyl)hex-4-ynoic acid compound with 2,2,2-trifluoroacetic acid]",EC50,GPR40 [1]; [3],0.8 nM
"CC#C[C@@H](CC(=O)O)c1ccc(OCc2cccc(CN3CCc4sc(CC)cc4C3)c2)cc1 [Compound 71, (S)-3-(4-((3-((2-Ethyl-6,7-dihydrothieno[3,2-c]pyridin-5(4H)-yl)methyl)benzyl)oxy)phenyl)hex-4-ynoic acid]",EC50,GPR40 [1]; [3],0.4 nM
"CC#C[C@@H](CC(=O)O)c1ccc(OCc2cccc(CN3CCc4sc(C(C)=O)cc4C3)c2)cc1 [Compound 72, (S)-3-(4-((3-((2-Acetyl-6,7-dihydrothieno[3,2-c]pyridin-5(4H)-yl)methyl)benzyl)oxy)phenyl)hex-4-ynoic acid]",EC50,GPR40 [1]; [3],2.3 nM
